# What was measured:
# [1] = Behaviour of co-crystal in aqueous media; type: physicochemical
# [2] = Particle size distribution by laser light diffraction (LLD); type: physicochemical
# Source text: Values are given in micrometer, measurements done by laser light diffraction (LLD).
structure (smiles),measurement,setting,value
"COc1ncc(-c2nc3c(n2C(C)C)[C@H](c2ccc(Cl)cc2)N(c2cc(Cl)cn(C)c2=O)C3=O)c(OC)n1 [HDM201-BBA, (6S)-5-(5-Chloro-1-methyl-2-oxo-1,2-dihydropyridin-3-yl)-6-(4-chlorophenyl)-2-(2,4-dimethoxypyrimidin-5-yl)-1-(propan-2-yl)-5,6-dihydropyrrolo[3,4-d]imidazol-4(1H)-one]",stability of co-crystal in aqueous media,[1],can disproportionate into the free form in aqueous media
same,particle size range X90(LLD) found suitable for direct encapsulation,[2],10-200 micrometer
